The nature of data set [1]: Photochromic response of test squares on an optical bench. The class given is physicochemical. To be noted: for Sensitivity ΔOD/min: first five (5) seconds of UV exposure, expressed per minute, 72° F. (22.2° C.), 0.15 to 0.20 mW/cm^2; for Bleach Rate T 1/2: time to one half the highest absorbance at room temperature (72° F., 22.2° C.) after removal of activating light. Here is the method: (§1) Testing was done with the photochromic compounds prepared in Examples 1, 2, 3 and 4 in the following manner. A quantity of each photochromic compound calculated to yield a 1.5×10^-3 molal solution was added to a flask containing 50 grams of a monomer blend of 4 parts ethoxylated bisphenol A dimethacrylate (BPA 2EO DMA), 1 part poly(ethylene glycol) 600 dimethacrylate, and 0.033 weight percent 2,2'-azobis(2-methyl propionitrile) (AIBN). Each photochromic compound was dissolved into the monomer blend by stirring and gentle heating. After a clear solution was obtained, it was poured into a flat sheet mold having the interior dimensions of 2.2 mm×6 inches (15.24 cm)×6 inches (15.24 cm). The mold was sealed and placed in a horizontal air flow, programmable oven programmed to increase the temperature from 40° C. to 95° C. over a 5 hour interval, hold the temperature at 95° C. for 3 hours, lower it to 60° C. over a 2 hour interval and then hold at 60° C. for 16 hours. After the mold was opened, the polymer sheet was cut using a diamond blade saw into 2 inch (5.1 centimeters) test squares.
The photochromic test squares prepared in Part A were tested for photochromic response on an optical bench. Prior to testing on the optical bench, the photochromic test squares were exposed to 365 nanometer ultraviolet light for about 15 minutes to activate the photochromic compounds and then placed in a 76° C. oven for about 15 minutes to bleach or inactivate the photochromic compounds. The test squares were then cooled to room temperature, exposed to fluorescent room lighting for at least 2 hours and then kept covered for at least 2 hours prior to testing on an optical bench maintained at 72° F. (22.2° C.). The bench was fitted with a 150 watt Xenon arc lamp, a remote controlled shutter, a copper sulfate bath acting as a heat sink for the arc lamp, a Schott WG-320 nm cut-off filter which removes short wavelength radiation; neutral density filter(s) and a sample holder in which the square to be tested was inserted. The power output of the optical bench, i.e., the dosage of light that the sample lens would be exposed to, was calibrated with a photochromic test square used as a reference standard. […] The UV-A detector was placed into the sample holder and the light output was measured. […]
A monitoring, collimated beam of light from a tungsten lamp was passed through the square at a small angle (approximately 30° ) normal to the square. After passing through the square, the light from the tungsten lamp was directed to a detector through Spectral Energy Corp. GM-200 monochromator set at the previously determined visible lambda max of the photochromic compound being measured. […]
Change in optical density (ΔOD) was determined by inserting a test square in the bleached state into the sample holder, adjusting the transmittance scale to 100% opening the shutter from the Xenon lamp to provide ultraviolet radiation to change the test square from the bleached state to an activated (i.e., darkened) state, measuring the transmittance in the activated state, and calculating the change in optical density according to the formula: ΔOD=log (100/%Ta), where %Ta is the percent transmittance in the activated state and the logarithm is to the base 10.
The Δ OD/Min, which represents the sensitivity of the photochromic compound's response to UV light, was measured over the first five (5) seconds of UV exposure, then expressed on a per minute basis. […]

Data set [2] is described as follows: lambda max (Vis) of activated form in test square polymerizates (Varian Cary 3 UV-Visible spectrophotometer). The data set is classed as physicochemical. To be noted: activated (colored) form in test square; BPA 2EO DMA / poly(ethylene glycol) 600 dimethacrylate polymer. The procedure:
as §1
The Δ OD/Min, which represents the sensitivity of the photochromic compound's response to UV light, was measured over the first five (5) seconds of UV exposure, then expressed on a per minute basis. The saturation optical density (Δ OD@ Saturation) was taken under identical conditions as the Δ OD/Min, except UV exposure was continued for 15 minutes. The lambda max (Vis) is the wavelength in nanometers (nm) in the visible spectrum at which the maximum absorption of the activated (colored) form of the photochromic compound in a test square occurs. The lambda max (Vis) wavelength was determined by testing the photochromic test square polymerizates of Part A in a Varian Cary 3 UV-Visible spectrophotometer. The Bleach Rate (T 1/2) is the time interval in seconds for the absorbance of the activated form of the photochromic compound in the test squares to reach one half the highest absorbance at room temperature (72° F., 22.2° C.) after removal of the source of activating light.

For `COc1ccc(C2(c3ccc(OC)cc3)C=Cc3c4c(c5cc(C)ccc5c3O2)C=C(C(c2ccccc2)c2ccccc2)OC4)cc1` [Example 3, 2,2-di(4-methoxyphenyl)-7-diphenylmethyl-10-methyl-2,5-dihydro-pyrano[3',4':3,4]naphtho[1,2-b]pyran], in data set [1], the “Sensitivity ΔOD/min” value is reported as 0.33 ΔOD/min and the “Bleach Rate T 1/2” value is 3.03 min. Also, the “lambda max (Vis)” value in data set [2] was 569 nanometers.
The matching figures for `Cc1ccc2c3c(c4c(c2c1)C=C(C(c1ccccc1)c1ccccc1)OC4)C=CC(c1ccccc1)(c1ccc(N2CCOCC2)cc1)O3` (centres unmarked) [Example 4, 2-phenyl-2-(4-morpholinophenyl)-7-diphenylmethyl-10-methyl-2,5-dihydro-pyrano[3',4':3,4]naphtho[1,2-b]pyran]: 0.39 ΔOD/min, 4.68 min and 592 nanometers.
On to `Cc1ccc2c3c(c4c(=O)oc(C(c5ccccc5)c5ccccc5)cc4c2c1)C=CC(c1ccccc1)(c1ccccc1)O3` [Example 1, 2,2-diphenyl-7-diphenylmethyl-10-methyl-2,5-dihydro-5-oxo-pyrano[3',4':3,4]naphtho[1,2-b]pyran], for which the “Bleach Rate T 1/2” value in data set [1] was found to be 0.833 min. Further, the “lambda max (Vis)” value in data set [2] is listed as 492 nanometers.

Source of the values: patent US6106744A, “Photochromic pyrano-fused naphthopyrans” (PPG Industries Ohio, Inc., priority 1997, dated 2000).
